From patent publication US10975092B2, “Pyrimidine seven-membered-ring compounds, preparation method therefor, pharmaceutical composition thereof, and uses thereof” (priority 2016, dated 2021)

Assays:
[1] = molecular target: T1, recombinant Mst1 (Homo sapiens, UniProt Q13043); test: Inhibition of Mst1 kinase activity, ELISA of Mob1 substrate phosphorylation; format: biochemical; details: MST1 IC50, recombinant Mst1 11 nM; ATP 6.7 gIVI; GST-Mob1a substrate; 30° C. 15 min
T1 sequence (Q13043 1-487): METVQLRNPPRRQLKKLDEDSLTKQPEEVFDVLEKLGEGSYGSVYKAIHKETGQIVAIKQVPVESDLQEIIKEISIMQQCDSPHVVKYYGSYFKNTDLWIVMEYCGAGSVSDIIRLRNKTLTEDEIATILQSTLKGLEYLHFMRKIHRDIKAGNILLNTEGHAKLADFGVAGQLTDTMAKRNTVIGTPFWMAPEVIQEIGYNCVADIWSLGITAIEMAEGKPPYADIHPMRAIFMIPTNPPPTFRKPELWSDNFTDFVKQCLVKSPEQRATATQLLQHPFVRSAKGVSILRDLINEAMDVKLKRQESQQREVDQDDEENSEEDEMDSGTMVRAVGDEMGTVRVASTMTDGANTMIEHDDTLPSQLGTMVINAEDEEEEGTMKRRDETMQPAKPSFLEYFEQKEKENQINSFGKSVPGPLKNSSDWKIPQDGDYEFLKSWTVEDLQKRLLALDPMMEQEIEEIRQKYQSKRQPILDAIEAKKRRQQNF
Method: (§1) We adopt a specific ELISA (Enzyme-linked immunosorbent assay) assay for measuring the biochemical activity (FIG. 1).
(§2) Specific methods are as follows:
(§3) 1. The substrate was diluted with purified recombinant GST-Mobla 200 nM in coating buffer, added to 96-well plates (Nalge Nunc International, Denmark), coated for overnight at 4° C., washed nextday three times with rinsing solution;
(§4) a. A kinase reaction buffer;
(§5) c. compound (dissolved in DMSO, containing not more than 1% of the total volume of the reaction);
(§6) Control Group Containing No ATP or Kinase;
(§7) 3. The reaction solution was poured to terminate the kinase reaction, and washed 4 times with rinse solution, 5 minutes each wash;
(§8) 4. Add 200 μL, per well of the blocking solution, shaking for 1 hour at room temperature, washed 4 times with rinsing solution;
(§9) 7. Add TMB chromogenic solution (Biolegend, Cat.B200119, B200120). After the color reaction to a certain extent, add to each well 100 μL, of 2M H2SO4 to terminate the reaction;
(§10) 8. […] Each set of three parallel experiments, the negative control is a solution with a final concentration of 1% DMSO, the control is the reaction system containing no ATP. […] The reagents are as follows: Coating Buffer: 0.1M NaHCO 3, 0.033M Na2CO3, pH 9.5 Rinse solution: 0.05% Tween-20 in PBS Reaction buffer: 40 mM of Hepes-NaOH (pH 7.4), 10 mM of MgCl2, 1 mM of dithiothreitol (DTT), 1 mM of NaF, 1 mM of Na3VO4, 1 mM of β-glycerophosphate Blocking solution: 1% BSA dissolved in PBS Compound Inhibition of Kinase Activity

[2] = molecular target: T2, recombinant MST2 (Homo sapiens, UniProt Q13188); test: Inhibition of Mst2 kinase activity, ELISA of Mob1 substrate phosphorylation; format: biochemical; details: MST2 IC50, 3.7 nM recombinant MST2; ATP 11.2 gIVI; GST-Mob1a substrate; 30° C. 15 min
T2 sequence (Q13188 1-491): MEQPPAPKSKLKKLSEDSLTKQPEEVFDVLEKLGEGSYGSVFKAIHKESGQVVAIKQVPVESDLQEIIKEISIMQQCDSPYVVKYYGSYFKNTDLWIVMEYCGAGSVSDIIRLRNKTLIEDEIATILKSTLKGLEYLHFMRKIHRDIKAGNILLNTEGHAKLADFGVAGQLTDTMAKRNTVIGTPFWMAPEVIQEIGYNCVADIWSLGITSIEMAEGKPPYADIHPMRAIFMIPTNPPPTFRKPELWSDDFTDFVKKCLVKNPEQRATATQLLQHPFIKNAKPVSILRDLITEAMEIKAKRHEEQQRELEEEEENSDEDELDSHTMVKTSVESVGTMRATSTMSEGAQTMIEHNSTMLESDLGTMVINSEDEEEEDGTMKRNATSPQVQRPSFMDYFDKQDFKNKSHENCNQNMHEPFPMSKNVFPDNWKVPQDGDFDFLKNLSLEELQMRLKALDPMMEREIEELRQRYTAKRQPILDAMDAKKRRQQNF
Method: as §1, §2, §3, §4, §5, §6, §7, §8, §9, §10

Row | SMILES | IC50 [1] | IC50 [2]
1 | C=CS(=O)(=O)Nc1ccc(Nc2ncc3c(n2)N(C)c2ccsc2C(=O)N3C)cc1 [II-26] | 820 nM | 410 nM
2 | CN1CCN(S(=O)(=O)c2ccc(Nc3ncc4c(n3)N(C3CCCC3)c3ccccc3C(=O)N4)cc2)CC1 [IB-2] | > 30000 nM | > 30000 nM
3 | CN1C(=O)c2ccc(Cl)cc2N(C)c2nc(Nc3ccc(S(C)(=O)=O)cc3)ncc21 [IH-14] | – | 22500 nM
4 | CN1C(=O)c2sccc2N(C)c2nc(Nc3ccc(N4CCC(O)CC4)cc3)ncc21 [II-15] | 650 nM | 1990 nM
5 | CN1CCN(S(=O)(=O)c2ccc(Nc3ncc4c(n3)N(C)c3ccccc3C(=O)N4)cc2)CC1 [IA-2] | 2380 nM | 14800 nM
6 | CN1C(=O)c2sccc2N(C)c2nc(Nc3ccc(C(=O)O)cc3)ncc21 [II-10] | 1020 nM | 1970 nM
7 | CN1C(=O)c2ccc(F)cc2N(C)c2nc(Nc3ccc(S(C)(=O)=O)cc3)ncc21 [IH-8] | 2170 nM | 3360 nM
8 | C=CC(=O)Nc1ccc(Nc2ncc3c(n2)N(C)c2ccsc2C(=O)N3C)cc1 [II-23] | 770 nM | 4760 nM
9 | CN1C(=O)c2sccc2N(C)c2nc(Nc3ccc(O)cc3)ncc21 [II-12] | 570 nM | 220 nM
10 | CN1CCN(C(=O)c2ccc(Nc3ncc4c(n3)N(C)c3ccsc3C(=O)N4C)cc2)CC1 [II-17] | 610 nM | 2510 nM
11 | CC(C)N1c2ccccc2C(=O)N(C)c2cnc(Nc3ccc(NS(C)(=O)=O)cc3)nc21 [IE-3] | 2720 nM | 8210 nM
12 | CN1C(=O)c2sccc2N(C)c2nc(Nc3ccc(NC(=O)CBr)cc3)ncc21 [II-19] | 3030 nM | 12600 nM
13 | CN1C(=O)c2cc(Cl)ccc2N(C)c2nc(Nc3ccc(S(N)(=O)=O)cc3)ncc21 [IH-10] | 5930 nM | –
14 | O=C1Nc2cnc(Nc3ccc(S(=O)(=O)N4CCC(O)CC4)cc3)nc2N(C2CCCC2)c2ccccc21 [IB-3] | > 30000 nM | > 30000 nM
15 | CN1C(=O)c2sccc2N(C)c2nc(Nc3ccc(OC(=O)CCl)cc3)ncc21 [II-25] | 580 nM | 2240 nM
16 | CSc1ccc(Nc2ncc3c(n2)N(C)c2ccsc2C(=O)N3C)cc1 [II-3] | 850 nM | 1720 nM
17 | CN1C(=O)c2cccc(F)c2N(C)c2nc(Nc3ccc(S(C)(=O)=O)cc3)ncc21 [IH-12] | 1660 nM | 1940 nM
18 | CCN1CCN(Cc2ccc(Nc3ncc4c(n3)N(C3CCCC3)c3ccccc3C(=O)N4C)cc2C(F)(F)F)CC1 [IF-6] | 9760 nM | –
19 | CN1C(=O)c2sccc2N(C)c2nc(Nc3ccc(S(C)(=O)=O)cc3)ncc21 [II-4] | 170 nM | 220 nM
20 | CN1C(=O)c2sccc2N(C)c2nc(Nc3cn[nH]c3)ncc21 [II-28] | 540 nM | 360 nM
21 | CN1C(=O)c2ccc(F)cc2N(C)c2nc(Nc3ccc(S(N)(=O)=O)cc3)ncc21 [IH-7] | 3120 nM | 2490 nM
22 | CN1C(=O)c2sccc2N(C)c2nc(Nc3cccc(S(N)(=O)=O)c3)ncc21 [II-2] | 2710 nM | –
23 | CN1C(=O)c2sccc2N(C)c2nc(Nc3ccc(C(N)=O)cc3)ncc21 [II-13] | 330 nM | 260 nM
24 | CN1C(=O)c2ccccc2Nc2nc(Nc3ccc(NS(C)(=O)=O)cc3)ncc21 [IG-2] | 5800 nM | 14600 nM
25 | CN1C(=O)c2ccccc2N(C2CCCC2)c2nc(Nc3ccc(S(=O)(=O)N4CCC(O)CC4)cc3)ncc21 [IF-3] | 2440 nM | 15700 nM
26 | CN1C(=O)c2cccc(F)c2N(C)c2nc(Nc3ccc(S(N)(=O)=O)cc3)ncc21 [IH-11] | 230 nM | 440 nM
27 | CN1CCN(c2ccc(Nc3ncc4c(n3)N(C)c3ccsc3C(=O)N4C)cc2)CC1 [II-21] | 250 nM | 3100 nM

Row | SMILES | IC50 [1] | IC50 [2]
28 | CN1C(=O)c2cccc3c2N(CC3)c2nc(Nc3ccc(S(N)(=O)=O)cc3)ncc21 [IV-3] | 430 nM | 1610 nM
29 | CN1CCN(S(=O)(=O)c2ccc(Nc3ncc4c(n3)N(C)c3ccccc3C(=O)N4C)cc2)CC1 [IC-2] | 2320 nM | 7800 nM
30 | CN1C(=O)c2cc(Cl)ccc2N(C)c2nc(Nc3ccc(S(C)(=O)=O)cc3)ncc21 [IH-9] | 5670 nM | 11600 nM
31 | CN1CCN(S(=O)(=O)c2ccc(Nc3ncc4c(n3)N(C)c3ccsc3C(=O)N4C)cc2)CC1 [II-7] | 1100 nM | 150 nM
32 | CSc1ccc(Nc2ncc3c(n2)N(C)c2ccccc2C(=O)N3C)cc1 [IC-6] | 1910 nM | 1800 nM
33 | CN1C(=O)c2sccc2N(C)c2nc(Nc3ccc(S(=O)(=O)Oc4ccccc4)cc3)ncc21 [II-5] | 4640 nM | 8890 nM
34 | CN1C(=O)c2ccccc2N(C)c2nc(Nc3ccc(S(=O)(=O)N4CCC(O)CC4)cc3)ncc21 [IC-3] | 670 nM | 520 nM
35 | CN1C(=O)c2ccccc2N(C)c2nc(Nc3ccc(S(N)(=O)=O)cc3)ncc21 [IC-1] | 70 nM | 110 nM
36 | CN1C(=O)c2ccccc2N(C)c2nc(Nc3ccc(S(C)(=O)=O)cc3)ncc21 [IC-7] | 500 nM | 90 nM
37 | CN1C(=O)c2sccc2N(C)c2nc(Nc3ccc(NC(=O)CCl)cc3)ncc21 [II-18] | 3340 nM | 13000 nM
38 | CCN1c2ccccc2C(=O)N(C)c2cnc(Nc3cccc(S(N)(=O)=O)c3)nc21 [ID-3] | 8650 nM | –
39 | Cc1ccc2c(c1)N(C)c1nc(Nc3ccc(S(N)(=O)=O)cc3)ncc1N(C)C2=O [IH-5] | 2400 nM | 2730 nM
40 | CN1C(=O)c2cccc3c2N(CC3)c2nc(Nc3ccc(NS(C)(=O)=O)cc3)ncc21 [IV-1] | 6070 nM | 3970 nM
41 | Cc1ccc2c(c1)N(C)c1nc(Nc3ccc(S(C)(=O)=O)cc3)ncc1N(C)C2=O [IH-1] | 5010 nM | 4810 nM
42 | CN1C(=O)c2ccccc2N(C)c2nc(Nc3ccc(S(=O)(=O)Oc4ccccc4)cc3)ncc21 [IC-8] | 13500 nM | 200 nM
43 | CN1C(=O)c2ccccc2Nc2nc(Nc3ccc(S(N)(=O)=O)cc3)ncc21 [IG-1] | 1550 nM | 2700 nM
44 | CN1C(=O)c2sccc2N(C)c2nc(Nc3ccc(S(=O)(=O)N4CCC(O)CC4)cc3)ncc21 [II-8] | 80 nM | 1030 nM
45 | CN1CCC(n2cc(Nc3ncc4c(n3)N(C)c3ccsc3C(=O)N4C)cn2)CC1 [II-20] | 110 nM | 2320 nM
46 | CCN1c2ccccc2C(=O)N(C)c2cnc(Nc3ccc(NS(C)(=O)=O)cc3)nc21 [ID-2] | 80 nM | 390 nM
47 | CN1C(=O)c2sccc2N(C)c2nc(Nc3ccc(S(=O)(=O)NC4CC4)cc3)ncc21 [II-6] | 260 nM | 20 nM
48 | CN1CCN(C2CCN(C(=O)c3ccc(Nc4ncc5c(n4)N(C)c4ccsc4C(=O)N5C)cc3)CC2)CC1 [II-24] | 220 nM | 2250 nM
49 | CN1C(=O)c2ccccc2N(C)c2nc(Nc3ccc(NS(C)(=O)=O)cc3)ncc21 [IC-10] | 240 nM | 80 nM
50 | CN1C(=O)c2ccccc2N(C2CCCC2)c2nc(Nc3ccc(S(N)(=O)=O)cc3)ncc21 [IF-2] | 630 nM | 3860 nM
51 | CN1CCN(S(=O)(=O)c2ccc(Nc3ncc4c(n3)N(C3CCCC3)c3ccccc3C(=O)N4C)cc2)CC1 [IF-4] | 6460 nM | –
52 | CN1C(=O)c2sccc2N(C)c2nc(Nc3cc[nH]n3)ncc21 [II-27] | 3440 nM | –
53 | CC(C)N1c2ccccc2C(=O)N(C)c2cnc(Nc3cccc(S(N)(=O)=O)c3)nc21 [IE-2] | 15800 nM | –
